Laboratory results reported in patent publication US6369110B1, “Substituted guanidine derivatives and process for producing the same” (Sumitomo Pharmaceuticals Company, priority 1998, dated 2002).

Biological target: T1, Na+/H+ exchange transport system (Rattus norvegicus, UniProt P26431)
T1 construct: a pH change in isolated ventricular myocytes (rat) under an acid load; from tissue; host or cells: isolated rat ventricular myocytes
Experiment: Inhibitory effect on the Na+/H+ exchange transport system (in vitro), pH change in isolated ventricular myocytes under an acid load
Assay type: cell-based
Method: Inhibitory Effect on the Na^+/H^+ Exchange Transport System (In Vitro)
A test was carried out according to the method of Iemori et al. (J. Hypertension, 8, 153(1990)). In detail, inhibitory effect on the Na^+/H^+ exchange transport system was evaluated by using as an indication a pH change in isolated ventricular myocytes (rat) under an acid load.

T1 sequence (P26431 whole entry): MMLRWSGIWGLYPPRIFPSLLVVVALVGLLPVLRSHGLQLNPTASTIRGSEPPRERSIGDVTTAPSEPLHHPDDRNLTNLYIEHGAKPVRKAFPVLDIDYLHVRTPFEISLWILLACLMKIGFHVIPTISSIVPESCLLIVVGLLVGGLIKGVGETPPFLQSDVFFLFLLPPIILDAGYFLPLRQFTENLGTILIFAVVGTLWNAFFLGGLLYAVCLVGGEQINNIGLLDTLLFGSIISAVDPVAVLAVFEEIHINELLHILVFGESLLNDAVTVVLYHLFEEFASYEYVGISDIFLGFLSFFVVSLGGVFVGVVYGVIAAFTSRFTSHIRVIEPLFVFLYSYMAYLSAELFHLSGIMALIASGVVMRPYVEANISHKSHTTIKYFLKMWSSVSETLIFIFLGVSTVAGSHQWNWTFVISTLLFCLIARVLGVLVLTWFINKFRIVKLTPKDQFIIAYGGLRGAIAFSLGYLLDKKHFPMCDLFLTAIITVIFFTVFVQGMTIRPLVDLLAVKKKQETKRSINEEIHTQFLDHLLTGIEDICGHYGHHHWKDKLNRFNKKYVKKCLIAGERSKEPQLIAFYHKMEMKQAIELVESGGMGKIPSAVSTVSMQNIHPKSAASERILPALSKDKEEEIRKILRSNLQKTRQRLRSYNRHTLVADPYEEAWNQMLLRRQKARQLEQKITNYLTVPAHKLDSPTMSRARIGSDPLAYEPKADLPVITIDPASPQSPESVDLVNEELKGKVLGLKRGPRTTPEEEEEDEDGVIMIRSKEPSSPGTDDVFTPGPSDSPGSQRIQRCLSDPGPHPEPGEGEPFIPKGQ

| Compound | IC50 |
| --- | --- |
| N-(aminoiminomethyl)-4-methylthio-6,7-dihydro-5H-benzocycloheptene-8-carboxamide Methanesulfonate [Example 14] | 30 nM |
| N-(aminoiminomethyl)-2-methylthio-6,7-dihydro-5H-benzocycloheptene-8-carboxamide Methanesulfonate [Example 12] | 460 nM |
| N-(aminoiminomethyl )-6,7-dihydro-5H-benzocycloheptene-8-carboxamide Methanesulfonate [Example 3] | 50 nM |
| N-(aminoiminomethyl)-2,3-dihydro-benz[b]oxepine-4-carboxamide Methanesulfonate [Example 6] | 70 nM |
| N-(aminoiminomethyl)-4-methylsulfonyl-6,7-dihydro-5H-benzocycloheptene-8-carboxamide Methanesulfonate [Example 15] | 30 nM |
| N-(aminoiminomethyl)-4,9-dimethyl-6,7-dihydro-5H-benzocycloheptene-8-carboxamide Methanesulfonate [Example 9] | 2300 nM |
| N-(aminoiminomethyl)-7-methyl-6,7-dihydro-5H-benzocycloheptene-8-carboxamide Methanesulfonate [Example 10] | 10 nM |
| N-(aminoiminomethyl)-9-methyl-6,7-dihydro-5H-benzocycloheptene-8-carboxamide Methanesulfonate [Example 8] | 7100 nM |
| N-(aminoiminomethyl)-5-methoxy-3,4-dihydronaphthalene-2-carboxamide Methanesulfonate [Example 2] | 100 nM |
| N-(aminoiminomethyl)-1-(4-methylphenylsulfonyl)-2,3-dihydro-1H-benz[b]azepine-4-carboxamide Methanesulfonate [Example 4] | 3300 nM |
| N-(aminoiminomethyl)-2-methylsulfonyl-6,7-dihydro-5H-benzocycloheptene-8-carboxamide Methanesulfonate [Example 13] | > 10000 nM |
| N-(aminoiminomethyl)-2,3-dihydro-1H-benz[b]azepine-4-carboxamide dimethane-sulfonate [Example 5] | 150 nM |
| CC1CC(C(=O)NC(=N)N)=Cc2ccccc2C1 (stereo not drawn) [Example 11, N-(aminoiminomethyl)-6-methyl-6.7-dihydro-5H-benzocycloheptene-8-carboxamide Methanesulfonate] | 210 nM |
| N-(aminoiminomethyl)-5-methyl-6,7-dihydro-5H-benzocycloheptene-8-carboxamide Methanesulfonate [Example 7] | 50 nM |
| N-(aminoiminomethyl)-3,4-dihydronaphthalene-2-carboxamide Methanesulfonate [Example 1] | 300 nM |
